Experiment [1] deals with Calcium/calmodulin-dependent protein kinase kinase 2 (Homo sapiens) (UniProt Q96RR4). The experiment can be described thus: Selectivity interaction (Kinase panel (KiNativ target engagement assay in Jurkat cells)) EUB0001635a CAMKK2. Type of experiment: cell-based. As to conditions: Selectivity number of off-targets 0.0, Selectivity number of targets 233.0, Source Knowledge https://www.sciencedirect.com/science/article/pii/S2451945619300674?via%3Dihub, at 1 µM.

For experiment [2], the target named is Leucine-rich repeat serine/threonine-protein kinase 2 (Homo sapiens, UniProt Q5S007). As to conditions: at 10 µM.
Leucine-rich repeat serine/threonine-protein kinase 2, sequence (Q5S007 whole entry): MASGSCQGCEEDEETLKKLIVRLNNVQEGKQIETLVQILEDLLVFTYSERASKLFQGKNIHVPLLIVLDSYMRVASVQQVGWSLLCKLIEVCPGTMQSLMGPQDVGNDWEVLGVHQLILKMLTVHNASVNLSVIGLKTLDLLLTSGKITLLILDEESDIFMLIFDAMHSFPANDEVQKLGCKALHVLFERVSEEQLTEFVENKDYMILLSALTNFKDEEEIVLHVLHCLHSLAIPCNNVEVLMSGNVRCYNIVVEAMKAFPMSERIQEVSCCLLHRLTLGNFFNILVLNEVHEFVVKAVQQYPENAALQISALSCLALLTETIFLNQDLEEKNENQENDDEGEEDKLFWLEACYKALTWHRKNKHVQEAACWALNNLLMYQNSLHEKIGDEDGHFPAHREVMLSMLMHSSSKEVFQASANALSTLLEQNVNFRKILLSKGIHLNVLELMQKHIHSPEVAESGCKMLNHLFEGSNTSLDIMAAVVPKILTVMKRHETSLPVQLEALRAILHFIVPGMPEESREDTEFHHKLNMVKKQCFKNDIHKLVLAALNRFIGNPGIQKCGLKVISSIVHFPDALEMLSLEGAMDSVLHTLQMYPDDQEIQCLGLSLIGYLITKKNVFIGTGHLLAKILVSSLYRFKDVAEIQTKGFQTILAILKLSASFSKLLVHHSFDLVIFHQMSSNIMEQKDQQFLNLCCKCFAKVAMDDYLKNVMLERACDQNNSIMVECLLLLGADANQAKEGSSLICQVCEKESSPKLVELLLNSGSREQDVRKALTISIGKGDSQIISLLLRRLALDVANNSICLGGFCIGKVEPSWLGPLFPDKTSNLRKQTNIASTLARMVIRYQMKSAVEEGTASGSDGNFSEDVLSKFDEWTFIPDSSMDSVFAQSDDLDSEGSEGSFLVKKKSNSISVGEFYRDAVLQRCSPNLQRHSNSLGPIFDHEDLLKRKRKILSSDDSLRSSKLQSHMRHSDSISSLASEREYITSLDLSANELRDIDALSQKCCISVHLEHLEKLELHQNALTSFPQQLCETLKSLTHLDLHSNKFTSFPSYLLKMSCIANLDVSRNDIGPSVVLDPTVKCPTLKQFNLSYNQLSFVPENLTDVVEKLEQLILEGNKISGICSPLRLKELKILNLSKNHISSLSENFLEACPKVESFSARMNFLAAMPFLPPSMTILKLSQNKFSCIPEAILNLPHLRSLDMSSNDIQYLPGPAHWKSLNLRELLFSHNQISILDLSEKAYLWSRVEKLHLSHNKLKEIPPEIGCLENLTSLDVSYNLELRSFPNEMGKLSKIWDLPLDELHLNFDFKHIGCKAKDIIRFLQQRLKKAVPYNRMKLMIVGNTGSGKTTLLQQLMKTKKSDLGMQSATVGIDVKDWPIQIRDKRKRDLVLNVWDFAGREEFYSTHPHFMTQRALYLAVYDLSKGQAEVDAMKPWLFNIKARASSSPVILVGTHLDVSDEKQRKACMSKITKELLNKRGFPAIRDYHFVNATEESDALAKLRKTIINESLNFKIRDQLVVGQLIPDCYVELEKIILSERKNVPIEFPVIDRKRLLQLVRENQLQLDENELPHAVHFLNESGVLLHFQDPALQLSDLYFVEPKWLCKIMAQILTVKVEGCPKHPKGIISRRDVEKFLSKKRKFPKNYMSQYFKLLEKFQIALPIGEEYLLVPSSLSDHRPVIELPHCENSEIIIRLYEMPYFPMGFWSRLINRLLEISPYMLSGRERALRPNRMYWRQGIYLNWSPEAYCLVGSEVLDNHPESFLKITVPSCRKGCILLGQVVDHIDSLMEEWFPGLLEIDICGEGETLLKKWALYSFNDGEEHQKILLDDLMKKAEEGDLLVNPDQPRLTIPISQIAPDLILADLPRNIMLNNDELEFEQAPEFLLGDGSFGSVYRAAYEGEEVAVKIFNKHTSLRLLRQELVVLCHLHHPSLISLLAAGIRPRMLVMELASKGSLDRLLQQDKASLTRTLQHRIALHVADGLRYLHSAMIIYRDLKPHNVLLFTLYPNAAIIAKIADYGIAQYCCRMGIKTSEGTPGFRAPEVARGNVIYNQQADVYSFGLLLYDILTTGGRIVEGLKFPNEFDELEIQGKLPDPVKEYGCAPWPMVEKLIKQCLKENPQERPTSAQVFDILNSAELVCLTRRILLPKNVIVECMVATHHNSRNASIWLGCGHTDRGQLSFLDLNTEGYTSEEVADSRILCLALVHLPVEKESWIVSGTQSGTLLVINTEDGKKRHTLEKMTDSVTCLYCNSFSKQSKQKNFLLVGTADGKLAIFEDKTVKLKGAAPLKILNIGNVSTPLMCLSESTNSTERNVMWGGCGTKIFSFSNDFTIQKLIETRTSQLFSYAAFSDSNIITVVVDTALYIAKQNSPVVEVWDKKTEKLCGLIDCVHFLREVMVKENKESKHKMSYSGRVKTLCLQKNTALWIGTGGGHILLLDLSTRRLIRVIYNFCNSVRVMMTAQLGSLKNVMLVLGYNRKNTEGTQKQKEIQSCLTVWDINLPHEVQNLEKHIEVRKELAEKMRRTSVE
In experiment [3] the target is T1, Mitogen-activated protein kinase kinase kinase 15 (Homo sapiens) (UniProt Q6ZN16).
T1 sequence (whole entry): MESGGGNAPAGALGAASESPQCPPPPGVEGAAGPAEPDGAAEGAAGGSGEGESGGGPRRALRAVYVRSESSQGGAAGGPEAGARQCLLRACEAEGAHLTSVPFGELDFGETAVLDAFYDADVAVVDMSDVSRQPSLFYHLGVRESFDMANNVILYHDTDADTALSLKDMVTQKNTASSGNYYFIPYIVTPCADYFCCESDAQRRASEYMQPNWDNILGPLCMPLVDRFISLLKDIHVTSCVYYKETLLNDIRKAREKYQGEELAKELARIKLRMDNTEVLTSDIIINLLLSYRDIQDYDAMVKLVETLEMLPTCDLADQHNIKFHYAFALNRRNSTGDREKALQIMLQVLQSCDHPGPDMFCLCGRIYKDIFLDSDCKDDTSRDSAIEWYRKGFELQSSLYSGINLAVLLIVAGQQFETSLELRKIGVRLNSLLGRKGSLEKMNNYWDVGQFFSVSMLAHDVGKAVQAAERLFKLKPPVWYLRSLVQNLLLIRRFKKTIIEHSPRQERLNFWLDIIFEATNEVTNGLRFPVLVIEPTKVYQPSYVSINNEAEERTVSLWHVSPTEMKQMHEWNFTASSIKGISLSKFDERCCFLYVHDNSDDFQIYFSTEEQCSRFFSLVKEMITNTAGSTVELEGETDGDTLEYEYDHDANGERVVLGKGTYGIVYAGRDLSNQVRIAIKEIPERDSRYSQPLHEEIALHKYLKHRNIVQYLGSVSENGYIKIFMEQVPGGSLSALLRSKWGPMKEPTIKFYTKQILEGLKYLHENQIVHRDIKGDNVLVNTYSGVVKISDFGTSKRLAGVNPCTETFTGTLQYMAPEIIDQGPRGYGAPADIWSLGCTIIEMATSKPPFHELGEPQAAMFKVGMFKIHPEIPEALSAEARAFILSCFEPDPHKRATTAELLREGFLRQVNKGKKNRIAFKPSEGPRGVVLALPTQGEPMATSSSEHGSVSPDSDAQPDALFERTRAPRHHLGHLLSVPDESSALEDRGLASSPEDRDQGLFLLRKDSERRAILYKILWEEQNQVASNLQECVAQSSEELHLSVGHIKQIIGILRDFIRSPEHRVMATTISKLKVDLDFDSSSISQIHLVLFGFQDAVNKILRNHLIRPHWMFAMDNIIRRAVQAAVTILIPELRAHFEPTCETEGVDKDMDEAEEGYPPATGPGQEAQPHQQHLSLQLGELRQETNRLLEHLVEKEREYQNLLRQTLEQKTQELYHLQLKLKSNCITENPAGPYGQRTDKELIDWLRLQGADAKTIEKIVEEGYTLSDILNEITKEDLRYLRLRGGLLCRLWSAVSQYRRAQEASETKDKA
Briefly: Selectivity interaction (KinomeScan (DiscoverX)) EUB0000229b MAP3K15. As to conditions: at 10 µM.

For experiment [4], the target named is RAF proto-oncogene serine/threonine-protein kinase (Homo sapiens) (UniProt P04049). Briefly: Selectivity interaction (KinomeScan (DiscoverX)) EUB0000229b RAF1. The settings on record: at 10 µM.
RAF proto-oncogene serine/threonine-protein kinase (Homo sapiens), sequence (P04049 whole entry): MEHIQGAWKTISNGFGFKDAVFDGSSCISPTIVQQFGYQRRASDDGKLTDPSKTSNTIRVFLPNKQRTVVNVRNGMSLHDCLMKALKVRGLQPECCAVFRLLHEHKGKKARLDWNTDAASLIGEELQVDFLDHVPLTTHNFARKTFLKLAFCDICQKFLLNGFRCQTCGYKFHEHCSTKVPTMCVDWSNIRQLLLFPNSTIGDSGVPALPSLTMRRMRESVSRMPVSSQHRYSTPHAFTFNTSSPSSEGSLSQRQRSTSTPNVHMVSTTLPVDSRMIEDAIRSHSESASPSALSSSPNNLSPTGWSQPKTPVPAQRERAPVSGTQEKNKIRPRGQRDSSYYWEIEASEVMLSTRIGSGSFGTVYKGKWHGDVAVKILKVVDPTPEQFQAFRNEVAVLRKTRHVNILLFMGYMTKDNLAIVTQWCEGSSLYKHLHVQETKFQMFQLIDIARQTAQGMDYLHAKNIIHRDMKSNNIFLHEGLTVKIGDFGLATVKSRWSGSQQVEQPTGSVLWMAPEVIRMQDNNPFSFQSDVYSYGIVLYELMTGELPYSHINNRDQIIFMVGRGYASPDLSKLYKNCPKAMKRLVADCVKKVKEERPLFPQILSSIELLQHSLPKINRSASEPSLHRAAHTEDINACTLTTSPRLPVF
Experiment [5] deals with T2, Cyclin-dependent kinase 11A (Homo sapiens) (UniProt Q9UQ88).
T2 sequence (whole entry): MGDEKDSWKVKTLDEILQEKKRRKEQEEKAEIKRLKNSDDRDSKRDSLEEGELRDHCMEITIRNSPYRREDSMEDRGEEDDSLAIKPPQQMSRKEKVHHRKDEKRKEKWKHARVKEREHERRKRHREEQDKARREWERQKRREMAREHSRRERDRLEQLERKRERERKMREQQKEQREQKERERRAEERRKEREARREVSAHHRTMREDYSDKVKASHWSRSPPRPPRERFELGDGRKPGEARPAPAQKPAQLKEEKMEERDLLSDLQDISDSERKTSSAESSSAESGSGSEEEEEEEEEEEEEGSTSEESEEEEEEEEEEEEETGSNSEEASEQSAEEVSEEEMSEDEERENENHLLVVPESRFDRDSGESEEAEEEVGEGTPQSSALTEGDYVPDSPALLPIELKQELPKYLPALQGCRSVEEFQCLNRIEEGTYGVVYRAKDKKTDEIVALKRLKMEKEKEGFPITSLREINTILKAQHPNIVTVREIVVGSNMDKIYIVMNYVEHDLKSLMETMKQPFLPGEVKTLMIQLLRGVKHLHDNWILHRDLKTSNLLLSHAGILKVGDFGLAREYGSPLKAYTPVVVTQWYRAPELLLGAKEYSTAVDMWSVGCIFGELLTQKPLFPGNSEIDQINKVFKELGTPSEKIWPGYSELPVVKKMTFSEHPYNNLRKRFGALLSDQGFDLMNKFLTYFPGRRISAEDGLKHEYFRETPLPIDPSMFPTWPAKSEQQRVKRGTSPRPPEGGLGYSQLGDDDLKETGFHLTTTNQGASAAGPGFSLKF
Briefly: Selectivity interaction (KinomeScan (DiscoverX)) EUB0000655a CDK11A. As to conditions: at 10 µM.

Experiment [6] has as its target T3, Serine/threonine-protein kinase Nek2 (Homo sapiens) (UniProt P51955).
T3 sequence (whole entry): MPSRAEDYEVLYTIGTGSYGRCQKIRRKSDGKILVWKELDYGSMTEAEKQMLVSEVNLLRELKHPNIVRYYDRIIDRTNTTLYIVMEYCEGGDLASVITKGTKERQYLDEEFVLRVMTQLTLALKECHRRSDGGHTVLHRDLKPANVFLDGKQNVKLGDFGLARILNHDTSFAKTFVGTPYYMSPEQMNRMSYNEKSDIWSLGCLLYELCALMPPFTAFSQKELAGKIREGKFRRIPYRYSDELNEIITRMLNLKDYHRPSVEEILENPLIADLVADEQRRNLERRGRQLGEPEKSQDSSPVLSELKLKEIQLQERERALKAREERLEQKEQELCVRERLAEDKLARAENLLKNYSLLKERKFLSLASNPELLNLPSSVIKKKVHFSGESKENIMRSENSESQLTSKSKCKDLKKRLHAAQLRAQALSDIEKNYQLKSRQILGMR
As to conditions: at 10 µM.

Calcium/calmodulin-dependent protein kinase kinase 2 (Homo sapiens), sequence (Q96RR4 2-588 limits assumed): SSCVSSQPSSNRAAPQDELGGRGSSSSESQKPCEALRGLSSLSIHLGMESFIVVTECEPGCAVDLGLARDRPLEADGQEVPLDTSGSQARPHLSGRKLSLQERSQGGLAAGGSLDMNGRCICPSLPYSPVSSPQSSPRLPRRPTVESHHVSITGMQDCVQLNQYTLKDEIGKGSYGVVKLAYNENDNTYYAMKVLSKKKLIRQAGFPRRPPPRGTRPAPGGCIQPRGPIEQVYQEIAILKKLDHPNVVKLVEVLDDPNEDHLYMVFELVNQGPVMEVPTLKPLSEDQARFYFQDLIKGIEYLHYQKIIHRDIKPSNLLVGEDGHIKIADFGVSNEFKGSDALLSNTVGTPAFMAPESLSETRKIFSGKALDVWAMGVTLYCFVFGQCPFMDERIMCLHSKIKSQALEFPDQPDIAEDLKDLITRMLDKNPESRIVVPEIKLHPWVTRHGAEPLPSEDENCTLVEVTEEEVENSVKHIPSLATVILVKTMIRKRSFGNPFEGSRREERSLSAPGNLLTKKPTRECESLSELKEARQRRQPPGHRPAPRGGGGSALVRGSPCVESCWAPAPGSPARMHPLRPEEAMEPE

Regarding `C=CC(=O)Nc1ccc(C(=O)Nc2[nH]nc3c2CN(C(=O)N[C@H](CN(C)C)c2ccccc2)C3(C)C)cc1`, the % of engagement in experiment [1] was -3.1%.
`Cc1cc([C@@H](C)Nc2ccccc2C(=O)O)c2nc(N3CCOCC3)cc(=O)n2c1` [AZD-6482] yielded a % of control in experiment [2] of 100%.
In the case of `COc1cc(N(C)c2ccnc3ccc(C(F)(F)F)cc23)cc(OC)c1OC`, the results for the % binding in experiment [3] and in experiment [4] were 100% and 91%, respectively.
For the compound `CN(C)CCOc1ccc(-c2nc(-c3ccncc3)c(-c3ccc4c(c3)CC/C4=N\O)[nH]2)cc1`, the % of control in experiment [5] was determined as 98%.
In experiment [6], `COCC(=O)NC/C=C/c1ccc2ncnc(Nc3ccc(Oc4ccc(C)nc4)c(C)c3)c2c1` [CP-724714] registered a % of control of 100%.

For the origin of these results see ChEMBL document CHEMBL5465560, “Selectivity Literature for EUbOPEN Chemogenomic Library” (2024).
